Measurements as given in patent publication US10111433B2 (priority 2014, dated 2018).
Read-outs that look alike come from different tables or passages of the source.

Experiments:
[1] = tested on: Phytophthora capsici; assay: Activity against Phytophthora capsici, growth inhibition in nutrient broth (microtiter plate); type: cell-based; conditions: Phytophthora capsici, read-out: % disease control; for inhibition of growth at 6.25e-05 ppm: A-1.2 0.0000625 ppm; for inhibition of growth at 0.0005 ppm: A-1.2 0.0005000 ppm; for inhibition of growth at 3.9e-06 ppm: A-1.2 0.0000039 ppm; for inhibition of growth at 7.8e-06 ppm: A-1.2 0.0000078 ppm; for inhibition of growth at 1.56e-05 ppm: A-1.2 0.0000156 ppm; for inhibition of growth at 3.13e-05 ppm: A-1.2 0.0000313 ppm
Method: Conidia of the fungus from cryogenic storage are directly mixed into nutrient broth (PDB potato dextrose broth). After placing a (DMSO) solution of test compound into a microtiter plate (96-well format), the nutrient broth containing the fungal spores is added. […] Table B4 to B21 gives the mean percent control relative to untreated.

[2] = tested on: Phytophthora infestans; type: in vivo; conditions: Table B3; A-1.2 15 gai/ha; leaf area, four days after final application
[3] = tested on: Plasmopara viticola; assay: Field activity against Plasmopara viticola on grapevine; type: in vivo; conditions: Table B2; A-1.2 22.5 gai/ha; bunches, ten days after sixth application
Source text: Merlot grapevines were cultivated in rows with 1 m between plants within the row, and 2 m spaces between rows. Treatment plots were defined with an 8 m^2 vertical area. The trial consisted of three replicates of the treatment list, with the positions of each treatment plot randomised within the replicate.
Test compounds were formulated and applied to the relevant treatment plots, using a backpack sprayer with a flat fan nozzle. The first application was made when the majority of plants were at growth stage BBCH 15 and following applications at 10-14 day intervals through to growth stage BBCH 79.
The first symptoms of the target pathogen Plasmopara viticola were observed between the second and third applications. Plants outside the trial area were inoculated to increase the disease pressure, but infection processes within the trial plots were natural. […]
Ten days after the sixth application, at growth stage BBCH 79, the fruit was assessed for infection by Plasmopara viticola. 50 bunches per plot were assessed, the scores given in table B2 are percent disease control relative to untreated, based on the mean percentage of bunches showing symptoms of infection across all three replicates of a treatment.

[4] = tested on: Phytophthora infestans; type: in vivo

In the case of `O=C(N[C@@H]1CCCc2ccccc21)c1cc(C2CCN(C(=O)Cn3nc(C(F)F)cc3C(F)F)CC2)ccn1` [Compound A-1.2, 1′-[2-(3,5-bis-difluoromethyl-pyrazol-1-yl)-acetyl]-1′,2′,3′,4′,5′,6′-hexahydro-[4,4′]bipyridinyl-2-carboxylic acid (R)-(1,2,3,4-tetrahydronaphthalen-1-yl)-amide], the inhibition of growth at 6.25e-05 ppm ([1]; Table B4) is reported as 0%, the inhibition of growth at 0.000125 ppm ([1]; Table B4, A-1.2 0.0001250 ppm) is reported as 32% and the inhibition of growth at 0.00025 ppm ([1]; Table B4, A-1.2 0.0002500 ppm) is reported as 64%. For the same molecule, the inhibition of growth at 0.0005 ppm ([1]; Table B4) was 76%, the inhibition of growth at 2e-06 ppm ([1]; Table B5, A-1.2 0.0000020 ppm) was 0% and the inhibition of growth at 3.9e-06 ppm ([1]; Table B5) was 0%. For the same molecule, the inhibition of growth at 7.8e-06 ppm ([1]; Table B5) was 0%, the inhibition of growth at 1.56e-05 ppm ([1]; Table B5) was 0% and the inhibition of growth at 3.13e-05 ppm ([1]; Table B5) was 0%. The inhibition of growth at 6.25e-05 ppm ([1]; Table B5) was 47%, the inhibition of growth at 6.25e-05 ppm ([1]; Table B6) was 0% and the inhibition of growth at 0.000125 ppm ([1]; Table B6, A-1.2 0.0001250 ppm) was 40%. The inhibition of growth at 0.00025 ppm ([1]; Table B6, A-1.2 0.0002500 ppm) was 78%, the inhibition of growth at 3.9e-06 ppm ([1]; Table B7) was 0% and the inhibition of growth at 7.8e-06 ppm ([1]; Table B7) was 0%. It also gave an inhibition of growth at 1.56e-05 ppm ([1]; Table B7) of 0%, an inhibition of growth at 3.13e-05 ppm ([1]; Table B7) of 0% and an inhibition of growth at 6.25e-05 ppm ([1]; Table B7) of 38%. For the same molecule, the inhibition of growth at 0.000125 ppm ([1]; Table B7, A-1.2 0.0001250 ppm) was 42%, the inhibition of growth at 6.25e-05 ppm ([1]; Table B8) was 3% and the inhibition of growth at 0.000125 ppm ([1]; Table B8, A-1.2 0.0001250 ppm) was 56%. The inhibition of growth at 0.00025 ppm ([1]; Table B8, A-1.2 0.0002500 ppm) was 69%, the inhibition of growth at 6.25e-05 ppm ([1]; Table B9) was 0% and the inhibition of growth at 0.000125 ppm ([1]; Table B9, A-1.2 0.0001250 ppm) was 47%. The inhibition of growth at 6.25e-05 ppm ([1]; Table B10) was 12%, the inhibition of growth at 0.000125 ppm ([1]; Table B10, A-1.2 0.0001250 ppm) was 62% and the inhibition of growth at 6.25e-05 ppm ([1]; Table B11) was 0%. It also gave an inhibition of growth at 0.000125 ppm ([1]; Table B11, A-1.2 0.0001250 ppm) of 55%, an inhibition of growth at 0.00025 ppm ([1]; Table B11, A-1.2 0.0002500 ppm) of 82% and an inhibition of growth at 3.13e-05 ppm ([1]; Table B12) of 0%. The inhibition of growth at 6.25e-05 ppm ([1]; Table B12) was 0%, the inhibition of growth at 0.000125 ppm ([1]; Table B12, A-1.2 0.0001250 ppm) was 57% and the inhibition of growth at 0.00025 ppm ([1]; Table B12, A-1.2 0.0002500 ppm) was 81%. For the same molecule, the inhibition of growth at 0.000125 ppm ([1]; Table B13, A-1.2 0.0001250 ppm) was 46%, the inhibition of growth at 0.00025 ppm ([1]; Table B13, A-1.2 0.0002500 ppm) was 69% and the inhibition of growth at 0.0005 ppm ([1]; Table B13) was 84%. For the same molecule, the inhibition of growth at 1.56e-05 ppm ([1]; Table B14) was 0%, the inhibition of growth at 3.13e-05 ppm ([1]; Table B14) was 0% and the inhibition of growth at 6.25e-05 ppm ([1]; Table B14) was 0%. The inhibition of growth at 1.56e-05 ppm ([1]; Table B15) was 0%, the inhibition of growth at 3.13e-05 ppm ([1]; Table B15) was 0% and the inhibition of growth at 6.25e-05 ppm ([1]; Table B15) was 0%. For the same molecule, the inhibition of growth at 0.000125 ppm ([1]; Table B15, A-1.2 0.0001250 ppm) was 71%, the inhibition of growth at 0.000125 ppm ([1]; Table B16, A-1.2 0.0001250 ppm) was 54% and the inhibition of growth at 6.25e-05 ppm ([1]; Table B17) was 0%. The inhibition of growth at 0.000125 ppm ([1]; Table B17, A-1.2 0.0001250 ppm) was 67%, the inhibition of growth at 0.00025 ppm ([1]; Table B17, A-1.2 0.0002500 ppm) was 79% and the inhibition of growth at 0.0005 ppm ([1]; Table B17) was 82%. For the same molecule, the inhibition of growth at 7.8e-06 ppm ([1]; Table B18) was 0%, the inhibition of growth at 1.56e-05 ppm ([1]; Table B18) was 0% and the inhibition of growth at 3.13e-05 ppm ([1]; Table B18) was 0%. The inhibition of growth at 6.25e-05 ppm ([1]; Table B18) was 0%, the inhibition of growth at 0.000125 ppm ([1]; Table B18, A-1.2 0.0001250 ppm) was 46% and the inhibition of growth at 1.56e-05 ppm ([1]; Table B19) was 0%. For the same molecule, the inhibition of growth at 3.13e-05 ppm ([1]; Table B19) was 0%, the inhibition of growth at 6.25e-05 ppm ([1]; Table B19) was 0% and the inhibition of growth at 0.000125 ppm ([1]; Table B19, A-1.2 0.0001250 ppm) was 38%. The inhibition of growth at 0.00025 ppm ([1]; Table B19, A-1.2 0.0002500 ppm) was 81%, the inhibition of growth at 6.25e-05 ppm ([1]; Table B20) was 66% and the inhibition of growth at 0.000125 ppm ([1]; Table B20, A-1.2 0.0001250 ppm) was 83%. It also gave an inhibition of growth at 6.3e-05 ppm ([1]; Table B21, A-1.2 0.000063 ppm) of 0%, an inhibition of growth at 0.000125 ppm ([1]; Table B21, A-1.2 0.000125 ppm) of 69% and an inhibition of growth at 0.00025 ppm ([1]; Table B21, A-1.2 0.000250 ppm) of 78%. The “% disease control relative to untreated” value [2] was 64.8%, the “% disease control relative to untreated” value [3] was 87.3% and the “% disease control” value ([4]; Table B1.1, A-1.2 0.02 ppm) was 0%. The “% disease control” value ([4]; Table B1.1, A-1.2 0.06 ppm) was 14%, the “% disease control” value ([4]; Table B1.2, A-1.2 0.06 ppm) was 14% and the “% disease control” value ([4]; Table B1.3, A-1.2 0.06 ppm) was 14%.
